Source: patent US20250034135A1, “ANTI-APOPTOTIC PROTEIN BCL-2 INHIBITOR, PHARMACEUTICAL COMPOSITION AND USES THEREOF” (HANGZHOU HEALZEN THERAPEUTICS CO., LTD., priority 2021, published 2025)

The compounds below were run against BCL2 (Homo sapiens (Human), UniProt P10415) (assay: Molecular level activity test of anti-apoptotic protein BCL2 (HTRF, binding to Bim peptide)). Details: HTRF, binding of BCL2 to Bim peptide; read-out: BCL2 nM (inhibitory activity, IC50).
How it was run: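 Disruption of the BCL2/Bim peptide interaction is detected by homogeneous time-resolved fluorescence, using anti-His and streptavidin-XL665 reagents against His-tagged protein and biotin-tagged peptide. Compound exposure lasts 1 h before reagent addition; plates then sit 4 h at room temperature.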

Sequence of BCL2 (P10415 whole entry): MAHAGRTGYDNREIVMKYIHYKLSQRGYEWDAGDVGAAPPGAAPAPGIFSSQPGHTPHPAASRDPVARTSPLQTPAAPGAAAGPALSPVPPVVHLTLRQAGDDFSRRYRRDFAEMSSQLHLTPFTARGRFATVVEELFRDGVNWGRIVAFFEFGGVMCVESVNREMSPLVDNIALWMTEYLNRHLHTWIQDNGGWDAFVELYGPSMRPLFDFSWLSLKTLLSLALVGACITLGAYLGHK

IC50, < 0.01 µM:
COc1ccc(CN2CCN(C3CC4(CCN(c5cc(Oc6cnc7[nH]ccc7c6)c(C(=O)NS(=O)(=O)c6cc([N+](=O)[O-])c(NC[C@H]7CC[C@](C)(O)CC7)c7occc67)cc5F)CC4)C3)[C@H](c3ccccc3C(C)C)C2)cc1 [compound 115, 2-((1H-pyrrolo[2,3-b]pyrid-5-yl)oxy)-5-fluoro-N-((7-((((1r, 4r)-4-hydroxy-4-methylcyclohexyl)methyl)amino)-6-nitrobenzofuran-4-yl)sulfonyl)-4-(2-((R)-2-(2-isopropylphenyl)-4-(4-methoxybenzyl)piperazin-1-yl)-7-azaspiro[3.5]non-7-yl)benzamide]
COc1ccc(CN2CCN(C3CC4(CCN(c5cc(Oc6cnc7[nH]ccc7c6)c(C(=O)NS(=O)(=O)c6cc([N+](=O)[O-])c(NC[C@H]7CC[C@](C)(O)CC7)c7scnc67)cc5F)CC4)C3)[C@H](c3ccccc3C(C)C)C2)cc1 [compound 116, 2-((1H-pyrrolo[2,3-b]pyrid-5-yl)oxy)-5-fluoro-N-((7-((((1r, 4r)-4-hydroxy-4-methylcyclohexyl)methyl)amino)-6-nitrobenzo[d]thiazol-4-yl)sulfonyl)-4-(2-((R)-2-(2-isopropylphenyl)-4-(4-methoxybenzyl)piperazin-1-yl)-7-azaspiro[3.5]non-7-yl)benzamide]
COc1ccc(CN2CCN(C3CC4(CCN(c5cc(Oc6cnc7[nH]ccc7c6)c(C(=O)NS(=O)(=O)c6cc([N+](=O)[O-])c(NC[C@H]7CC[C@](C)(O)CC7)c7oc(C)cc67)cc5F)CC4)C3)[C@H](c3ccccc3C(C)C)C2)cc1 [compound 117, 2-((1H-pyrrolo[2,3-b]pyrid-5-yl)oxy)-5-fluoro-N-((7-((((1r, 4r)-4-hydroxy-4-methylcyclohexyl)methyl)amino)-2-methyl-6-nitrobenzofuran-4-yl)sulfonyl)-4-(2-((R)-2-(2-isopropylphenyl)-4-(4-methoxybenzyl)piperazin-1-yl)-7-azaspiro[3.5]non-7-yl)benzamide]
COc1ccc(CN2CCN(C3CC4(CCN(c5cc(Oc6cnc7[nH]ccc7c6)c(C(=O)NS(=O)(=O)c6cc([N+](=O)[O-])c(NC[C@H]7CC[C@](C)(O)CC7)c7c6OCCO7)cc5F)CC4)C3)[C@H](c3ccccc3C(C)C)C2)cc1 [compound 118, 2-((1H-pyrrolo[2,3-b]pyrid-5-yl)oxy)-5-fluoro-N-((8-((((1r, 4r)-4-hydroxy-4-methylcyclohexyl)methyl)amino)-7-nitro-2,3-dihydrobenzo[b][1,4]dioxan-5-yl)sulfonyl)-4-(2-((R)-2-(2-isopropylphenyl)-4-(4-methoxybenzyl)piperazin-1-yl)-7-azaspiro[3.5]non-7-yl)benzamide]
COc1ccc(CN2CCN(C3CC4(CCN(c5cc(Oc6cnc7[nH]ccc7c6)c(C(=O)NS(=O)(=O)c6cc([N+](=O)[O-])c(NC[C@H]7CC[C@](C)(O)CC7)c7c6CCO7)cc5F)CC4)C3)[C@H](c3ccccc3C(C)C)C2)cc1 [compound 119, 2-((1H-pyrrolo[2,3-b]pyrid-5-yl)oxy)-5-fluoro-N-((7-((((1r, 4r)-4-hydroxy-4-methylcyclohexyl)methyl)amino)-6-nitro-2,3-dihydrobenzofuran-4-yl)sulfonyl)-4-(2-((R)-2-(2-isopropylphenyl)-4-(4-methoxybenzyl)piperazin-1-yl)-7-azaspiro[3.5]non-7-yl)benzamide]
COc1ccc(CN2CCN(C3CC4(CCN(c5cc(Oc6cnc7[nH]ccc7c6)c(C(=O)NS(=O)(=O)c6cc([N+](=O)[O-])c(NCC7CCOCC7)c7ocnc67)cc5F)CC4)C3)[C@H](c3ccccc3C(C)C)C2)cc1 [compound 121, (R)-2-((1H-pyrrolo[2,3-b]pyrid-5-yl)oxy)-5-fluoro-4-(2-(2-(2-isopropylphenyl)-4-(4-methoxybenzyl)piperazin-1-yl)-7-azaspiro[3.5]non-7-yl)-N-((6-nitro-7-(((tetrahydro-2H-pyran-4-yl)methyl)amino)benzo[d]oxazol-4-yl)sulfonyl)benzamide]
COc1ccc(CN2CCN(C3CC4(CCN(c5cc(Oc6cnc7[nH]ccc7c6)c(C(=O)NS(=O)(=O)c6cc([N+](=O)[O-])c(NCC7CCOCC7)c7scnc67)cc5F)CC4)C3)[C@H](c3ccccc3C(C)C)C2)cc1 [compound 122, (R)-2-((1H-pyrrolo[2,3-b]pyrid-5-yl)oxy)-5-fluoro-4-(2-(2-(2-isopropylphenyl)-4-(4-methoxybenzyl)piperazin-1-yl)-7-azaspiro[3.5]non-7-yl)-N-((6-nitro-7-(((tetrahydro-2H-pyran-4-yl)methyl)amino)benzo[d]thiazol-4-yl)sulfonyl)benzamide]
COc1ccc(CN2CCN(C3CC4(CCN(c5cc(Oc6cnc7[nH]ccc7c6)c(C(=O)NS(=O)(=O)c6cc([N+](=O)[O-])c(NC[C@H]7COCCO7)c7c6OCO7)cc5F)CC4)C3)[C@H](c3ccccc3C(C)C)C2)cc1 [compound 123]
COc1ccc(CN2CCN(C3CC4(CCN(c5cc(Oc6cnc7[nH]ccc7c6)c(C(=O)NS(=O)(=O)c6cc([N+](=O)[O-])c(NC[C@H]7COCCO7)c7ocnc67)cc5F)CC4)C3)[C@H](c3ccccc3C(C)C)C2)cc1 [compound 124]
COc1ccc(CN2CCN(C3CC4(CCN(c5cc(Oc6cnc7[nH]ccc7c6)c(C(=O)NS(=O)(=O)c6cc([N+](=O)[O-])c(NC[C@H]7COCCO7)c7scnc67)cc5F)CC4)C3)[C@H](c3ccccc3C(C)C)C2)cc1 [compound 125]
COc1ccc(CN2CCN(C3CC4(CCN(c5cc(Oc6cnc7[nH]ccc7c6)c(C(=O)NS(=O)(=O)c6cc([N+](=O)[O-])c(NCC7(F)CCOCC7)c7c6OCO7)cc5F)CC4)C3)[C@H](c3ccccc3C(C)C)C2)cn1 [compound 126]
COc1ccc(CN2CCN(C3CC4(CCN(c5cc(Oc6cnc7[nH]ccc7c6)c(C(=O)NS(=O)(=O)c6cc([N+](=O)[O-])c(NCC7(F)CCOCC7)c7ocnc67)cc5F)CC4)C3)[C@H](c3ccccc3C(C)C)C2)cn1 [compound 127, (R)-2-((1H-pyrrolo[2,3-b]pyrid-5-yl)oxy)-5-fluoro-N-((7-(((4-fluorotetrahydro-2H-pyran-4-yl)methyl)amino)-6-nitrobenzo[d]oxazol-4-yl)sulfonyl)-4-(2-(2-(2-isopropylphenyl)-4-((6-methoxypyrid-3-yl)methyl)piperazin-1-yl)-7-azaspiro[3.5]non-7-yl)benzamide]
COc1ccc(CN2CCN(C3CC4(CCN(c5cc(Oc6cnc7[nH]ccc7c6)c(C(=O)NS(=O)(=O)c6cc([N+](=O)[O-])c(NCC7(F)CCOCC7)c7scnc67)cc5F)CC4)C3)[C@H](c3ccccc3C(C)C)C2)cn1 [compound 128, (R)-2-((1H-pyrrolo[2,3-b]pyrid-5-yl)oxy)-5-fluoro-N-((7-(((4-fluorotetrahydro-2H-pyran-4-yl)methyl)amino)-6-nitrobenzo[d]thiazol-4-yl)sulfonyl)-4-(2-(2-(2-isopropylphenyl)-4-((6-methoxypyrid-3-yl)methyl)piperazin-1-yl)-7-azaspiro[3.5]non-7-yl)benzamide]
COc1ccc(CN2CCN(C3CC4(CCN(c5cc(Oc6cnc7[nH]ccc7c6)c(C(=O)NS(=O)(=O)c6cc([N+](=O)[O-])c(NCC7(F)CCOCC7)c7occc67)cc5F)CC4)C3)[C@H](c3ccccc3C(C)C)C2)cn1 [compound 129, (R)-2-((1H-pyrrolo[2,3-b]pyrid-5-yl)oxy)-5-fluoro-N-((7-(((4-fluorotetrahydro-2H-pyran-4-yl)methyl)amino)-6-nitrobenzofuran-4-yl)sulfonyl)-4-(2-(2-(2-isopropylphenyl)-4-((6-methoxypyrid-3-yl)methyl)piperazin-1-yl)-7-azaspiro[3.5]non-7-yl)benzamide]
COc1ccc(CN2CCN(C3CC4(CCN(c5cc(Oc6cnc7[nH]ccc7c6)c(C(=O)NS(=O)(=O)c6cc([N+](=O)[O-])c(NCC7(F)CCOCC7)c7c6OCO7)cc5F)CC4)C3)[C@H](c3ccccc3C(C)C)C2)c(F)n1 [compound 130, (R)-2-((1H-pyrrolo[2,3-b]pyrid-5-yl)oxy)-5-fluoro-4-(2-(4-((2-fluoro-6-methoxypyrid-3-yl)methyl)-2-(2-isopropylphenyl)piperazin-1-yl)-7-azaspiro[3.5]non-7-yl)-N-((7-(((4-fluorotetrahydro-2H-pyran-4-yl)methyl)amino)-6-nitrobenzo[d][1,3]dioxocyclopent-4-yl)sulfonyl)benzamide]
COc1ccc(CN2CCN(C3CC4(CCN(c5cc(Oc6cnc7[nH]ccc7c6)c(C(=O)NS(=O)(=O)c6cc([N+](=O)[O-])c(NCC7(F)CCOCC7)c7ocnc67)cc5F)CC4)C3)[C@H](c3ccccc3C(C)C)C2)c(F)n1 [compound 131, (R)-2-((1H-pyrrolo[2,3-b]pyrid-5-yl)oxy)-5-fluoro-4-(2-(4-((2-fluoro-6-methoxypyrid-3-yl)methyl)-2-(2-isopropylphenyl)piperazin-1-yl)-7-azaspiro[3.5]non-7-yl)-N-((7-(((4-fluorotetrahydro-2H-pyran-4-yl)methyl)amino)-6-nitrobenzo[d]yl)sulfonyl)benzamide]
COc1ccc(CN2CCN(C3CC4(CCN(c5cc(Oc6cnc7[nH]ccc7c6)c(C(=O)NS(=O)(=O)c6cc([N+](=O)[O-])c(NCC7(F)CCOCC7)c7c6OCO7)cn5)CC4)C3)[C@H](c3ccccc3C(C)C)C2)cc1 [compound 132, (R)-4-((1H-pyrrolo[2,3-b]pyrid-5-yl)oxy)-N-((7-(((4-fluorotetrahydro-2H-pyran-4-yl)methyl)amino)-6-nitrobenzo[d][1,3]dioxocyclopent-4-yl)sulfonyl)-6-(2-(2-(2-isopropylphenyl)-4-(4-methoxybenzyl)piperazin-1-yl)-7-azaspiro[3.5]non-7-yl) nicotinamide]
